This passage reports IC50 results from patent US20210189342A1, “COMPOSITIONS AND METHODS FOR MODULATING MONOCYTE AND MACROPHAGE INFLAMMATORY PHENOTYPES AND IMMUNOTHERAPY USES THEREOF” (Verseau Therapeutics, Inc., priority 2018, published 2021).

Format in all cases: cell-based, human
The subject of one series is SELPLG. Description: siRNA dose response, SELPLG mRNA knockdown, bDNA Assay. Conditions: THP-1, 24 hr. As for the experimental part: (§1) Dose response curves for siRNAs were generated in vitro using a variety of cell lines according to Table 4.
(§2) Briefly, cells were seeded in 96-well plates and reverse transfected with siRNA, Lipofectamine® 2000 (0.5 uL/well; ThermoFisher), and, in some cases, a reporter plasmid (50 ng/well). The reporter plasmid (psiCHECK™-2, Promega) encoded both firefly luciferase and the gene of interest fused to renilla luciferase; silencing of the gene of interest results in proportional silencing of renilla luciferase but leaves firefly luciferase unaffected as an internal control.
(§3) After 24 hr incubation at 37° C., mRNA knockdown was measured using an endpoint assay. For targets without a reporter plasmid, a branched DNA (bDNA) assay was performed according to the manufacturer's instructions (QuantiGene® Singleplex Gene Expression Assay, ThermoFisher) to measure both the target gene and GAPDH (housekeeping gene) mRNA. Data are plotted as siRNA concentration (nM) vs. remaining mRNA (ratio of target gene to GAPDH, normalized to mock siRNA-transfected cells). For targets with a reporter plasmid, a Dual-Glo® Luciferase Assay was performed according to the manufacturer's instructions (Promega) to measure firefly and renilla luciferase expression. Data are plotted as siRNA concentration (nM) vs. remaining mRNA (ratio of renilla to firefly luminescence, normalized to mock siRNA-transfected cells).
(§4) For all dose response curves, a 4-parameter logistic model was applied to determine the IC50 of each siRNA sequence (Table 5 and FIG. 2). Data shown in Table 5 and FIG. 2 represent the mean of quadruplicates, +/−standard deviation.

In the next series the test system is EVI2B. Description: siRNA dose response, EVI2B mRNA knockdown, bDNA Assay. The following applies: A172, 24 hr. On the procedure:
as §1, §2, §3, §4

The next series relates to TBXAS1. Kind of series: siRNA dose response, TBXAS1 mRNA knockdown, bDNA Assay. The following applies: A549, 24 hr. On the procedure: as §1, §2, §3, §4

Usually IC50 stands for the midpoint of a concentration-inhibition curve. Read a low IC50 as inhibition by little substance. Substance “XD-09261: siRNA targeting SELPLG (sense 5'-ccAccGAAuAUGAguAccudTsdT-3'; antisense 5'-AGGuACUcAuAUUCGGUGGdTsdT-3'; as printed in the source, key not given here)” came in with a concentration for half-maximal inhibition (IC50) with SELPLG of 386 pM. This counts as sub-nanomolar. For the substance “XD-09262: siRNA targeting SELPLG (sense 5'-ccGAAuAuGAGuAccuAGAdTsdT-3'; antisense 5'-UCuAGGuACUcAuAUUCGGdTsdT-3'; as printed in the source, key not given here)”, half-maximal inhibition in the series with SELPLG (IC50) was put at 1350 pM.

Consider “XD-09263: siRNA targeting SELPLG (sense 5'-gcAcAGAccAcucaAcccAdTsdT-3'; antisense 5'-UGGGUUGAGUGGUCUGUGCdTsdT-3'; as printed in the source, key not given here)”, for which the concentration for half-maximal inhibition (IC50) in the series with SELPLG came out at 2960 pM.

In the series with SELPLG, “XD-09264: siRNA targeting SELPLG (sense 5'-accAAAAGAGGucuGuucAdTsdT-3'; antisense 5'-UGAAcAGACCUCUUUUGGUdTsdT-3'; as printed in the source, key not given here)” came in with a 50% inhibitory concentration (IC50) of 1960 pM.

Consider “XD-09265: siRNA targeting SELPLG (sense 5'-aaGcAGAcGGGcAaGuGGAdTsdT-3'; antisense 5'-UCcACUUGCCCGUCUGCUUdTsdT-3'; RNA with 2'-O-methyl and phosphorothioate modifications, case key not given here, as printed in the source, key not given here)”, for which inhibition in the series on SELPLG was half-maximal at 486 pM (IC50). For “XD-09266: siRNA targeting SELPLG (sense 5'-aguAcuGAAGAGugAcGGAdTsdT-3'; antisense 5'-UCCGUcACUCUUcAGuACUdTsdT-3'; RNA with 2'-O-methyl and phosphorothioate modifications, case key not given here, as printed in the source, key not given here)”, in the series on SELPLG, half-maximal inhibition (IC50) was put at 207 pM. On to “XD-10481: siRNA targeting EVI2B (sense 5'-cuuuGGGucAAccaAcAcAdTsdT-3'; antisense 5'-UGUGUUGGUUGACCcAAAGdTsdT-3'; RNA with 2'-O-methyl and phosphorothioate modifications, case key not given here, as printed in the source, key not given here)”, for which, in the series with EVI2B, the midpoint of inhibition, the IC50, lay at 169 pM. The same measure, in the same setting: next, “XD-10482: siRNA targeting EVI2B (sense 5'-caAccAAcAccAAuAGccAdTsdT-3'; antisense 5'-UGGCuAUUGGUGUUGGUUGdTsdT-3'; RNA with 2'-O-methyl and phosphorothioate modifications, case key not given here, as printed in the source, key not given here)”: 17 pM; “XD-10483: siRNA targeting EVI2B (sense 5'-ccAucuGcccGuAcuucuAdTsdT-3'; antisense 5'-uAGAAGuACGGGcAGAUGGdTsdT-3'; RNA with 2'-O-methyl and phosphorothioate modifications, case key not given here, as printed in the source, key not given here)”: 3270 pM. Take “XD-10484: siRNA targeting EVI2B (sense 5'-ccAccAAAGucAuuuGucudTsdT-3'; antisense 5'-AGAcAAAUGACUUUGGUGGdTsdT-3'; RNA with 2'-O-methyl and phosphorothioate modifications, case key not given here, as printed in the source, key not given here)”: the IC50 with EVI2B was 14 pM. This IC50 lies about 230-fold lower than the previous one. As for “XD-10485: siRNA targeting EVI2B (sense 5'-gucAAAAAuucAccuAGGAdTsdT-3'; antisense 5'-UCCuAGGUGAAUUUUUGACdTsdT-3'; RNA with 2'-O-methyl and phosphorothioate modifications, case key not given here, as printed in the source, key not given here)”, in the series on EVI2B, inhibition was half-maximal at 1380 pM (IC50).

For the substance “XD-10486: siRNA targeting EVI2B (sense 5'-ggAuuuAucuuAGauAcuAdTsdT-3'; antisense 5'-uAGuAUCuAAGAuAAAUCCdTsdT-3'; RNA with 2'-O-methyl and phosphorothioate modifications, case key not given here, as printed in the source, key not given here)”, in the series on EVI2B, the 50% inhibitory concentration (IC50) was determined as 225 pM.

As for “XD-10487: siRNA targeting EVI2B (sense 5'-cauAcuAAuuGGuguAcuudTsdT-3'; antisense 5'-AAGuAcACcAAUuAGuAUGdTsdT-3'; RNA with 2'-O-methyl and phosphorothioate modifications, case key not given here, as printed in the source, key not given here)”, in the series with EVI2B, the IC50 is 156 pM.

In turn, “XD-10488: siRNA targeting EVI2B (sense 5'-agcuAuAAucAucauuGuAdTsdT-3'; antisense 5'-uAcAAUGAUGAUuAuAGCUdTsdT-3'; RNA with 2'-O-methyl and phosphorothioate modifications, case key not given here, as printed in the source, key not given here)” came in with a 50% inhibitory concentration (IC50) in the series on EVI2B of 2550 pM. The substance “XD-10489: siRNA targeting EVI2B (sense 5'-cucccAAcucuGAucAAGAdTsdT-3'; antisense 5'-UCUUGAUcAGAGUUGGGAGdTsdT-3'; RNA with 2'-O-methyl and phosphorothioate modifications, case key not given here, as printed in the source, key not given here)” showed an IC50 with EVI2B of 13 pM. In the case of “XD-10490: siRNA targeting TBXAS1 (sense 5'-gccGAcAGcGuucuGuuuudTsdT-3'; antisense 5'-AAAAcAGAACGCUGUCGGCdTsdT-3'; RNA with 2'-O-methyl and phosphorothioate modifications, case key not given here, as printed in the source, key not given here)”, in the series on TBXAS1, the 50% inhibitory concentration (IC50) is 573 pM. For the substance “XD-10491: siRNA targeting TBXAS1 (sense 5'-cuGcAAGcGuuucuucGAAdTsdT-3'; antisense 5'-UUCGAAGAAACGCUUGcAGdTsdT-3'; RNA with 2'-O-methyl and phosphorothioate modifications, case key not given here, as printed in the source, key not given here)”, the 50% inhibitory concentration (IC50) with TBXAS1 came out at 48 pM. Still for that read-out and setting: in the case of “XD-10492: siRNA targeting TBXAS1 (sense 5'-gcccGGAuuuuGcccAAuAdTsdT-3'; antisense 5'-uAUUGGGcAAAAUCCGGGCdTsdT-3'; RNA with 2'-O-methyl and phosphorothioate modifications, case key not given here, as printed in the source, key not given here)” it was 1440 pM. For the substance “XD-10493: siRNA targeting TBXAS1 (sense 5'-ggAuuuuGcccAAuAAGAAdTsdT-3'; antisense 5'-UUCUuAUUGGGcAAAAUCCdTsdT-3'; RNA with 2'-O-methyl and phosphorothioate modifications, case key not given here, as printed in the source, key not given here)”, the IC50 in the series on TBXAS1 was found to be 239 pM. The same measure, in the same setting: in the case of “XD-10494: siRNA targeting TBXAS1 (sense 5'-caAuAAGAAccGAgAcGAAdTsdT-3'; antisense 5'-UUCGUCUCGGUUCUuAUUGdTsdT-3'; RNA with 2'-O-methyl and phosphorothioate modifications, case key not given here, as printed in the source, key not given here)” it was 49 pM; in that of “XD-10495: siRNA targeting TBXAS1 (sense 5'-gaAccGAGAcGAAcuGAAudTsdT-3'; antisense 5'-AUUcAGUUCGUCUCGGUUCdTsdT-3'; RNA with 2'-O-methyl and phosphorothioate modifications, case key not given here, as printed in the source, key not given here)”, 125 pM; in that of “XD-10496: siRNA targeting TBXAS1 (sense 5'-agAcGAAcuGAAugGcuuudTsdT-3'; antisense 5'-AAAGCcAUUcAGUUCGUCUdTsdT-3'; as printed in the source, key not given here)”, 61 pM. On to “XD-10497: siRNA targeting TBXAS1 (sense 5'-ccAuGGGcGuGcAaGAcuudTsdT-3'; antisense 5'-AAGUCUUGcACGCCcAUGGdTsdT-3'; RNA with 2'-O-methyl and phosphorothioate modifications, case key not given here, as printed in the source, key not given here)”, for which the half-maximal inhibitory concentration (IC50) in the series with TBXAS1 was found to be 137 pM. On to “XD-10498: siRNA targeting TBXAS1 (sense 5'-gcGuGcAAGAcuuuGAcAudTsdT-3'; antisense 5'-AUGUcAAAGUCUUGcACGCdTsdT-3'; RNA with 2'-O-methyl and phosphorothioate modifications, case key not given here, as printed in the source, key not given here)”, for which the IC50 in the series with TBXAS1 was found to be 273 pM.
